The values that follow come from publication PMC2574845 (Drug metabolism and disposition: the biological fate of …, 2008).

For data set [1] the following is noted: in water; ref Lang et al., 2007; cited from earlier work.
Data set [2] in a line: BA-glutathione conjugate formation. To be noted: 50 μM BA; for fraction of BA conjugated with glutathione / relative rate of glutathione conjugate formation, rank order: 5 mM glutathione, pH 7.4, room temperature; for fraction of BA conjugated with glutathione: data not shown.
Data set [3] in a line: Quinone/hydroquinone cycling in microsomal incubations. The settings on record: microsomal incubation with NAD(P)H; data not shown.
A short description of data set [4]: Metabolism. The settings on record: mouse liver microsomes, 50 μM BA, pH 7.4, 35 °C; for oxygen consumption rates, NADPH-dependent metabolism, comparison: p<0.05; for relative oxygen consumption rates, NADH-dependent metabolism, rank order: > indicates p<0.05. In general terms: Liver microsomes are a subcellular fraction often used to study metabolism.
For data set [5], the target named is recombinant human NQO1 (rhNQO1) (Homo sapiens, UniProt P15559). Briefly: Relative stability of hydroquinone ansamycins. In kind it is physicochemical. The settings on record: for relative stability of BAH2 (nmol oxygen consumption per nmol NADH oxidized), rank order: 50 mM potassium phosphate buffer, pH 7.4, 35 °C, BAH2 generated by rhNQO1 and NADH, > indicates p<0.05.
Sequence of recombinant human NQO1 (rhNQO1) (P15559 whole entry): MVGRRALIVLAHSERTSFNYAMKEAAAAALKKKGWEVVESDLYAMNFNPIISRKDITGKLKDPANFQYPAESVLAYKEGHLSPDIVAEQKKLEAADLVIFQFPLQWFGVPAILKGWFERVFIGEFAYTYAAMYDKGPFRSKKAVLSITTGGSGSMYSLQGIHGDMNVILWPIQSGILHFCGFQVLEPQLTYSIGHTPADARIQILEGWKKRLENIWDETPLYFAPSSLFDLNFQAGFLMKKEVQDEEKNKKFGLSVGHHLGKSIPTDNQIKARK

Data set [6] is described as follows: Metabolism. The settings on record: human liver microsomes, 50 μM BA, pH 7.4, 35 °C, > indicates p<0.05.
In the next data set the target is rhNQO1 (Homo sapiens, UniProt P15559). Briefly: Prevention of GM and 17DMAG glutathione conjugate formation by rhNQO1. In kind it is biochemical. To be noted: for prevention of conjugation with glutathione by NQO1 reduction: 50 μM BA, 5 mM GSH, 11.8 μg rhNQO1, 500 μM NADH, pH 7.4, room temperature.
Sequence of rhNQO1 (P15559 whole entry): as above
For data set [7] the following is noted: 5 min, 50 μM, pH 7.4.
The target in data set [8] is T1, human NADPH-cytochrome P450 reductase (Homo sapiens, UniProt P16435).
T1 sequence (P16435 1-677): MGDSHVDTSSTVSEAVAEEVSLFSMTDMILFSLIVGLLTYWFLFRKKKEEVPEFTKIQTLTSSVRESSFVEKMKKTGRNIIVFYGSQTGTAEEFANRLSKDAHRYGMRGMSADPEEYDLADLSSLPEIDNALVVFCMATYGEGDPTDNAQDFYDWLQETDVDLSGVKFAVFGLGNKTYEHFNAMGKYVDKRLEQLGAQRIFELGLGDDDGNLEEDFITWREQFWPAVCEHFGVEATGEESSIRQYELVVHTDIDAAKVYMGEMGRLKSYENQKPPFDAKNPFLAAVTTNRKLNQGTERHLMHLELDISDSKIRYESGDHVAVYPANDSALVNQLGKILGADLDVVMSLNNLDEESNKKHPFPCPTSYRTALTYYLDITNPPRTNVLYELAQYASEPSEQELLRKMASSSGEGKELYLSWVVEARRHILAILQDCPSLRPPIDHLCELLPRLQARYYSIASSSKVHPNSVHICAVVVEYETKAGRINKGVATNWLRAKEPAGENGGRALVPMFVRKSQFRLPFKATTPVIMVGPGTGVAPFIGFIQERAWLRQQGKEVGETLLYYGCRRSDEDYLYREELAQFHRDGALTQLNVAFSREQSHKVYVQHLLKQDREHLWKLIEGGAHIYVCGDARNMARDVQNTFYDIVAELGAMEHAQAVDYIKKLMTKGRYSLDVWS
The settings on record: GM, NADH and NADPH-cytochrome P450 reductase, no NADPH.

Bounds are passed on as bounds.

Consider `C=CCNC1=C2C[C@@H](C)C[C@H](OC)[C@H](O)[C@@H](C)/C=C(\C)[C@H](OC(N)=O)[C@@H](OC)/C=C\C=C(/C)C(=O)NC(=CC1=O)C2=O` [17AAG, 17-(allylamino)-17-demethoxygeldanamycin], for which the one-electron redox potential in [1] was −0.390 V. Further, the “fraction of BA conjugated with glutathione” value (“fraction of BA conjugated” below) in data set [2] (after 24 hours) is on record as “less than 15%”. The “compound in the quinone form on HPLC” value in data set [3] was greater than 95%. In addition, the “oxygen consumption rates, NADPH-dependent metabolism, comparison” value (shortened to “oxygen consumption rates … comparison”) in “Metabolism [4]” is “significantly slower compared to GM”.
Consider `C=CCNc1c(O)cc2c(O)c1C[C@@H](C)C[C@H](OC)[C@H](O)[C@@H](C)/C=C(\C)[C@H](OC(N)=O)[C@@H](OC)/C=C\C=C(/C)C(=O)N2` [17AAGH2, 17-(allylamino)-17-demethoxygeldanamycin hydroquinone], for which, in data set [5], the “relative stability of BAH2 (nmol oxygen consumption per nmol NADH oxidized), rank order” value was “GMH2>17AAGH2>17DMAGH2>17AGH2, 17AEP-GAH2”.
For `CO[C@H]1/C=C\C=C(/C)C(=O)NC2=CC(=O)C(NCCN3CCCC3)=C(C[C@@H](C)C[C@H](OC)[C@H](O)[C@@H](C)/C=C(\C)[C@@H]1OC(N)=O)C2=O` [17AEP-GA, 17-demethoxy-17-[[2-(pyrrolidin-1-yl)ethyl]amino]-geldanamycin], in data set [2], the “relative rate of glutathione conjugate formation, rank order” value (“relative rate” for short) was “GM>17DMAG>17AEP-GA>17AAG, 17AG”. Besides, the “fraction of BA conjugated” value in data set [2] (within 10 hours) was “about 90%”. In the data set “Metabolism [4]”, the “relative oxygen consumption rates, NADH-dependent metabolism, rank order” value is on record as “GM>17DMAG>17AG, 17AEP-GA, 17AAG” and the “oxygen consumption rates … comparison” value is listed as “significantly greater than 17AAG”. Moreover, in the data set “Metabolism [6]”, the “relative oxygen consumption rates, NADH-dependent metabolism, rank order” value is listed as “GM>17DMAG, 17AG, 17AEP-GA>17AAG” and the “relative oxygen consumption rates, NADPH-dependent metabolism, rank order” value was “GM, 17DMAG, 17AEP-GA>17AG>17AAG”.
In the case of `COC1C=CC=C(C)C(=O)Nc2cc(O)c(NCCN3CCCC3)c(c2O)CC(C)CC(OC)C(O)C(C)C=C(C)C1OC(N)=O` (stereo not shown) [17AEP-GAH2, 17-demethoxy-17-[[2-(pyrrolidin-1-yl)ethyl]amino]-geldanamycin hydroquinone], the “relative stability of BAH2 (nmol oxygen consumption per nmol NADH oxidized), rank order” value in data set [5] is recorded as “GMH2>17AAGH2>17DMAGH2>17AGH2, 17AEP-GAH2”. In addition, in data set [5] (auto-oxidation over time), the “half-life of auto-oxidation of BAH2 back to quinone (in words)” value is listed as “a few minutes”.
Consider `CO[C@H]1/C=C\C=C(/C)C(=O)NC2=CC(=O)C(N)=C(C[C@@H](C)C[C@H](OC)[C@H](O)[C@@H](C)/C=C(\C)[C@@H]1OC(N)=O)C2=O` [17AG, 17-(amino)-17-demethoxygeldanamycin], for which the “relative rate” value in data set [2] was “GM>17DMAG>17AEP-GA>17AAG, 17AG”. Further, the “fraction of BA conjugated” value in data set [2] (after 24 hours) is “less than 15%”. Also, the “compound in the quinone form on HPLC” value in data set [3] was greater than 95%. In addition, in “Metabolism [4]”, the “relative oxygen consumption rates, NADH-dependent metabolism, rank order” value is “GM>17DMAG>17AG, 17AEP-GA, 17AAG” and the “oxygen consumption rates … comparison” value was “significantly greater than 17AAG”. Also, in “Metabolism [6]”, the “relative oxygen consumption rates, NADH-dependent metabolism, rank order” value is on record as “GM>17DMAG, 17AG, 17AEP-GA>17AAG” and the “relative oxygen consumption rates, NADPH-dependent metabolism, rank order” value is reported as “GM, 17DMAG, 17AEP-GA>17AG>17AAG”.
With `COC1C=CC=C(C)C(=O)Nc2cc(O)c(N)c(c2O)CC(C)CC(OC)C(O)C(C)C=C(C)C1OC(N)=O` (stereo not shown) [17AGH2, 17-(amino)-17-demethoxygeldanamycin hydroquinone], the “relative stability of BAH2 (nmol oxygen consumption per nmol NADH oxidized), rank order” value in data set [5] was “GMH2>17AAGH2>17DMAGH2>17AGH2, 17AEP-GAH2”.
For `CO[C@H]1/C=C\C=C(/C)C(=O)NC2=CC(=O)C(NCCN(C)C)=C(C[C@@H](C)C[C@H](OC)[C@H](O)[C@@H](C)/C=C(\C)[C@@H]1OC(N)=O)C2=O` [17DMAG, 17-demethoxy-17-[[2-(dimethylamino)ethyl]amino]-geldanamycin], the “prevention of conjugation with glutathione by NQO1 reduction” value at rhNQO1 is given as greater than 95%. Also, the “relative rate” value in [2] is on record as “GM>17DMAG>17AEP-GA>17AAG, 17AG”. Further, the “glutathione conjugate (17DMAG-SG) formed” value in data set [2] (5 mM reduced glutathione, phosphate buffer pH 7.4, room temperature, within 4 hours) was “approximately 47 μM”. The “compound in the quinone form on HPLC” value in [3] was greater than 95%. Moreover, in the data set “Metabolism [4]”, the “relative oxygen consumption rates, NADH-dependent metabolism, rank order” value is “GM>17DMAG>17AG, 17AEP-GA, 17AAG” and the “oxygen consumption rates … comparison” value is reported as “significantly greater than 17AAG”. Moreover, in “Metabolism [6]”, the “relative oxygen consumption rates, NADH-dependent metabolism, rank order” value is “GM>17DMAG, 17AG, 17AEP-GA>17AAG” and the “relative oxygen consumption rates, NADPH-dependent metabolism, rank order” value was “GM, 17DMAG, 17AEP-GA>17AG>17AAG”.
`CO[C@H]1/C=C\C=C(/C)C(=O)Nc2cc(O)c(NCCN(C)C)c(c2O)C[C@@H](C)C[C@H](OC)[C@H](O)[C@@H](C)/C=C(\C)[C@@H]1OC(N)=O` [17DMAGH2, 17-demthoxy-17-[[2-(dimethylamino)ethyl]amino]-geldanamycin hydroquinone]: the “relative stability of BAH2 (nmol oxygen consumption per nmol NADH oxidized), rank order” value in data set [5] is given as “GMH2>17AAGH2>17DMAGH2>17AGH2, 17AEP-GAH2”.
As for `COC1=CC(=O)c2c(c(COc3ccc([N+](=O)[O-])cc3)c(C)n2C)C1=O` [ES936, 5-methoxy-1,2-dimethyl-3-[(4-nitrophenoxy)methyl]indole-4,7-dione], the “effect on NQO1-mediated prevention of BA glutathione conjugation” value at rhNQO1 (pretreatment with 2 μM ES936, GM or 17DMAG with NADH, rhNQO1 and glutathione) is reported as “abrogated”.
As for `COC1=C2C[C@@H](C)C[C@H](OC)[C@H](O)[C@@H](C)/C=C(\C)[C@H](OC(N)=O)[C@@H](OC)/C=C\C=C(/C)C(=O)NC(=CC1=O)C2=O` [GM, geldanamycin], the “prevention of conjugation with glutathione by NQO1 reduction” value on rhNQO1 is recorded as greater than 95%. For the same molecule, the “glutathione conjugate (GMH2-SG) formed” value in data set [7] is recorded as “approximately 45 μM”. In addition, the one-electron redox potential in [1] was −0.243 V. Also, in [2], the “relative rate” value is on record as “GM>17DMAG>17AEP-GA>17AAG, 17AG”. Besides, the “compound in the quinone form on HPLC” value in data set [3] is “about 70%”. In addition, in the data set “Metabolism [4]”, the “relative oxygen consumption rates, NADH-dependent metabolism, rank order” value is recorded as “GM>17DMAG>17AG, 17AEP-GA, 17AAG” and the “oxygen consumption rates … comparison” value was “significantly greater than 17AAG”. In the data set “Metabolism [6]”, the “relative oxygen consumption rates, NADH-dependent metabolism, rank order” value is “GM>17DMAG, 17AG, 17AEP-GA>17AAG” and the “relative oxygen consumption rates, NADPH-dependent metabolism, rank order” value is given as “GM, 17DMAG, 17AEP-GA>17AG>17AAG”. In addition, the “oxygen consumption with NADH as cofactor” value in data set [8] was “no oxygen consumption was observed”.
Consider `COc1c(O)cc2c(O)c1C[C@@H](C)C[C@H](OC)[C@H](O)[C@@H](C)/C=C(\C)[C@H](OC(N)=O)[C@@H](OC)/C=C\C=C(/C)C(=O)N2` [GMH2, geldanamycin hydroquinone], for which the “relative stability of BAH2 (nmol oxygen consumption per nmol NADH oxidized), rank order” value in data set [5] is listed as “GMH2>17AAGH2>17DMAGH2>17AGH2, 17AEP-GAH2”. Also, the “half-life of auto-oxidation of BAH2 back to quinone” value in [5] (auto-oxidation over time) is listed as “about 20 hours”.
